Experiment: xn = mol fraction of the nth substance listed
Details: for mass density / viscosity: 100 kPa, Liquid; for mass density: Vibrating tube method; for surface tension liquid-gas: Drop volume

CCC12CC3CC(CC(C3)C1)C2 [1-ethyladamantane] + OCC1CCCCC1
Details | mass density [kg/m3] | surface tension liquid-gas [mN/m] | viscosity [mPa·s]
293.15 K, x2 = 0 | 937.11 | – | 6.371
293.15 K, x2 = 0.1 | 936.13 | – | 6.695
293.15 K, x2 = 0.2002 | 935.23 | – | 7.433
293.15 K, x2 = 0.2997 | 934.37 | – | 8.368
293.15 K, x2 = 0.3999 | 933.76 | – | 9.674
293.15 K, x2 = 0.4998 | 933.1 | – | 11.54
293.15 K, x2 = 0.5989 | 932.54 | – | 14.09
293.15 K, x2 = 0.7001 | 931.93 | – | 17.67
293.15 K, x2 = 0.8023 | 931.24 | – | 23.66
293.15 K, x2 = 0.8996 | 930.57 | – | 29.61
298.15 K, x2 = 0 | 933.58 | 29.87 | 5.565
298.15 K, x2 = 0.1 | 932.5 | 30.21 | 5.776
298.15 K, x2 = 0.2002 | 931.58 | 30.84 | 6.348
298.15 K, x2 = 0.2997 | 930.72 | 30.99 | 7.083
298.15 K, x2 = 0.3999 | 930.09 | 31.23 | 8.081
298.15 K, x2 = 0.4998 | 929.43 | 31.51 | 9.483
298.15 K, x2 = 0.5989 | 928.87 | 31.86 | 11.38
298.15 K, x2 = 0.7001 | 928.31 | 31.98 | 14.04
298.15 K, x2 = 0.8023 | 927.68 | 32.1 | 18.53
298.15 K, x2 = 0.8996 | 927 | 32.21 | 22.86
303.15 K, x2 = 0 | 929.99 | – | 4.903
303.15 K, x2 = 0.1 | 928.84 | – | 5.033
303.15 K, x2 = 0.2002 | 927.89 | – | 5.484
303.15 K, x2 = 0.2997 | 927.06 | – | 6.058
303.15 K, x2 = 0.3999 | 926.4 | – | 6.832
303.15 K, x2 = 0.4998 | 925.74 | – | 7.675
303.15 K, x2 = 0.5989 | 925.17 | – | 9.337
303.15 K, x2 = 0.7001 | 924.63 | – | 11.31
303.15 K, x2 = 0.8023 | 924.04 | – | 14.75
303.15 K, x2 = 0.8996 | 923.4 | – | 18.07
308.15 K, x2 = 0 | 926.4 | – | 4.348
308.15 K, x2 = 0.1 | 925.16 | – | 4.417
308.15 K, x2 = 0.2002 | 924.2 | – | 4.772
308.15 K, x2 = 0.2997 | 923.39 | – | 5.224
308.15 K, x2 = 0.3999 | 922.68 | – | 5.833
308.15 K, x2 = 0.4998 | 922.03 | – | 6.657
308.15 K, x2 = 0.5989 | 921.45 | – | 7.748
308.15 K, x2 = 0.7001 | 920.92 | – | 9.236
308.15 K, x2 = 0.8023 | 920.38 | – | 11.88
308.15 K, x2 = 0.8996 | 919.77 | – | 14.39
313.15 K, x2 = 0 | 922.81 | – | 3.878
313.15 K, x2 = 0.1 | 921.48 | – | 3.897
313.15 K, x2 = 0.2002 | 920.49 | – | 4.182
313.15 K, x2 = 0.2997 | 919.69 | – | 4.542
313.15 K, x2 = 0.3999 | 918.95 | – | 5.016
313.15 K, x2 = 0.4998 | 918.29 | – | 5.663
313.15 K, x2 = 0.5989 | 917.71 | – | 6.499
313.15 K, x2 = 0.7001 | 917.19 | – | 7.629
313.15 K, x2 = 0.8023 | 916.67 | – | 9.75
313.15 K, x2 = 0.8996 | 916.12 | – | 11.66
318.15 K, x2 = 0 | 919.21 | – | 3.478
318.15 K, x2 = 0.1 | 917.79 | – | 3.463
318.15 K, x2 = 0.2002 | 916.77 | – | 3.688
318.15 K, x2 = 0.2997 | 915.95 | – | 3.973
318.15 K, x2 = 0.3999 | 915.2 | – | 4.35
318.15 K, x2 = 0.4998 | 914.53 | – | 4.857
318.15 K, x2 = 0.5989 | 913.94 | – | 5.504
318.15 K, x2 = 0.7001 | 913.43 | – | 6.374
318.15 K, x2 = 0.8023 | 912.93 | – | 8.051
318.15 K, x2 = 0.8996 | 912.44 | – | 9.556
323.15 K, x2 = 0 | 915.62 | – | 3.134
323.15 K, x2 = 0.1 | 914.09 | – | 3.094
323.15 K, x2 = 0.2002 | 913.03 | – | 3.27
323.15 K, x2 = 0.2997 | 912.19 | – | 3.497
323.15 K, x2 = 0.3999 | 911.42 | – | 3.798
323.15 K, x2 = 0.4998 | 910.75 | – | 4.199
323.15 K, x2 = 0.5989 | 910.15 | – | 4.707
323.15 K, x2 = 0.7001 | 909.63 | – | 5.378
323.15 K, x2 = 0.8023 | 909.16 | – | 6.705
323.15 K, x2 = 0.8996 | 908.7 | – | 7.906
328.15 K, x2 = 0 | 912.01 | – | 2.838
328.15 K, x2 = 0.1 | 910.38 | – | 2.777
328.15 K, x2 = 0.2002 | 909.27 | – | 2.915
328.15 K, x2 = 0.2997 | 908.41 | – | 3.096
328.15 K, x2 = 0.3999 | 907.62 | – | 3.338
328.15 K, x2 = 0.4998 | 906.94 | – | 3.657
328.15 K, x2 = 0.5989 | 906.33 | – | 4.059
328.15 K, x2 = 0.7001 | 905.81 | – | 4.581
328.15 K, x2 = 0.8023 | 905.35 | – | 5.629
328.15 K, x2 = 0.8996 | 904.92 | – | 6.508
333.15 K, x2 = 0 | 908.41 | – | 2.581
333.15 K, x2 = 0.1 | 906.65 | – | 2.507
333.15 K, x2 = 0.2002 | 905.5 | – | 2.613
333.15 K, x2 = 0.2997 | 904.61 | – | 2.756
333.15 K, x2 = 0.3999 | 903.81 | – | 2.952
333.15 K, x2 = 0.4998 | 903.1 | – | 3.208
333.15 K, x2 = 0.5989 | 902.49 | – | 3.525
333.15 K, x2 = 0.7001 | 901.96 | – | 3.935
333.15 K, x2 = 0.8023 | 901.5 | – | 4.674
333.15 K, x2 = 0.8996 | 901.1 | – | 5.472

— the NIST ThermoML archive (doi:10.1021/je500381c)
